Experimental data from patent publication US6528456B2, “Herbicidal 2-pyrazolyl-6-aryloxypyri(mi)dines” (BASF Aktiengesellschaft, priority 1999, dated 2003).

Legend:
Assay type in all cases: in vivo
[1] = system: Abutilon theophrasti; experiment: Pre-emergence test; conditions: 3 weeks after treatment
Procedure: (§1) To evaluate their herbicidal activity, compounds according to the invention are tested using a representative range of plants: ABUTH Abutilon theophrasti The pre-emergence tests involve spraying a liquid formulation of the compound onto the soil in which the seeds of the plant species mentioned above has recently been sown. The soil used in the tests is a prepared horticultural loam. The formulations used in the tests are prepared from solutions of the test compounds in acetone containing 0.4% by weight of an alkylphenol/ethylene oxide condensate available under the trade mark TRITON X-155. These acetone solutions are diluted with water and the resulting formulations applied at dosage levels corresponding to 0.025 kg, 0.100 kg or 0.400 kg of active material per hectare in a volume equivalent to 900 litres per hectare. In these tests untreated sown soil are used as controls. From 2 to 4 weeks after treatment, the tests are terminated and each pot is examined and rated according to the rating system set forth below: [table]

[2] = system: Matricaria inodora; experiment: Pre-emergence test; conditions: 3 weeks after treatment
Procedure: as §1, with “MATIN Matricaria inodora” for “ABUTH Abutilon theophrasti”

[3] = system: Zea mays; experiment: Pre-emergence test; conditions: 3 weeks after treatment
Procedure: as §1, with “ZEAMX Zea mays” for “ABUTH Abutilon theophrasti”

[4] = system: Ipomoea hederacea; experiment: Post-emergence test; conditions: 2-4 weeks after treatment
Procedure: (§2) To evaluate their herbicidal activity, compounds according to the invention are tested using a representative range of plants: IPHOE Ipomoea hederacea [table] […] These acetone solutions are diluted with water and the resulting formulations applied at dosage levels equivalent of about 0.1 to 0. 4 kg per hectare of test compound per pot. After spraying the plants are placed on greenhouse benches and are cared for in the usual manner, commensurate with conventional greenhouse practices. From 2 to 4 weeks after treatment, the seedling plants are examined and rated according to the rating system provided above.

[5] = system: Alopecurus myosuroides; experiment: Post-emergence test; conditions: 2-4 weeks after treatment
Procedure: as §2, with “ALOMY Alopecurus myosuroides” for “IPHOE Ipomoea hederacea”

[6] = system: Setaria viridis; experiment: Post-emergence test; conditions: 2-4 weeks after treatment
Procedure: as §2, with “SETVI Setaria viridis” for “IPHOE Ipomoea hederacea”

[7] = system: Hordeum vulgare; experiment: Post-emergence test; conditions: 2-4 weeks after treatment
Procedure: as §2, with “HORVW Hordeum vulgare” for “IPHOE Ipomoea hederacea”

[8] = system: weeds; experiment: Overall weed control in pre- and post-emergence application; conditions: dose of 0.1 kg/ha
Procedure: (§3) The pre-emergence tests involve spraying a liquid formulation of the compound onto the soil in which the seeds of the plant species mentioned above has recently been sown. The soil used in the tests is a prepared horticultural loam. The formulations used in the tests are prepared from solutions of the test compounds in acetone containing 0.4% by weight of an alkylphenol/ethylene oxide condensate available under the trade mark TRITON X-155. These acetone solutions are diluted with water and the resulting formulations applied at dosage levels corresponding to 0.025 kg, 0.100 kg or 0.400 kg of active material per hectare in a volume equivalent to 900 litres per hectare. In these tests untreated sown soil are used as controls. […] These acetone solutions are diluted with water and the resulting formulations applied at dosage levels equivalent of about 0.1 to 0. 4 kg per hectare of test compound per pot. After spraying the plants are placed on greenhouse benches and are cared for in the usual manner, commensurate with conventional greenhouse practices. From 2 to 4 weeks after treatment, the seedling plants are examined and rated according to the rating system provided above.

[9] = system: soybeans, wheat; experiment: Crop selectivity in pre- and post-emergence application; conditions: dose of 0.1 kg/ha
Procedure: as §3

SMILES	ABUTH herbicidal rating ([1]; 0.100 kg/ha)	ABUTH herbicidal rating ([1]; 0.400 kg/ha)	MATIN herbicidal rating ([2]; 0.100 kg/ha)	MATIN herbicidal rating ([2]; 0.400 kg/ha)	ZEAMX herbicidal rating ([3]; 0.025 kg/ha)	ZEAMX herbicidal rating ([3]; 0.100 kg/ha)	ZEAMX herbicidal rating ([3]; 0.400 kg/ha)	IPOHE herbicidal rating ([4]; 0.1 kg/ha)	IPOHE herbicidal rating ([4]; 0.4 kg/ha)	ALOMY herbicidal rating ([5]; 0.1 kg/ha)	ALOMY herbicidal rating ([5]; 0.4 kg/ha)	SETVI herbicidal rating ([6]; 0.1 kg/ha)	SETVI herbicidal rating ([6]; 0.4 kg/ha)	HORVW herbicidal rating ([7]; 0.1 kg/ha)	HORVW herbicidal rating ([7]; 0.4 kg/ha)	ABUTH herbicidal rating ([1]; 0.025 kg/ha)	MATIN herbicidal rating ([2]; 0.025 kg/ha)	overall levels of weed control [8]	tolerance in soybeans and wheat [9]
Cc1cc(Oc2cccc(C(F)(F)F)c2)nc(-c2cc(C(F)(F)F)nn2C)c1 [Example 63]	0 (0 - No effect)	2 (2 - Slight effect)	6 (6 - Herbicidal effect)	9 (9 - Complete kill)	0 (0 - No effect)	0 (0 - No effect)	0 (0 - No effect)	8 (8 - Approaching complete kill)	8 (8 - Approaching complete kill)	1 (1 - Trace effect)	2 (2 - Slight effect)	3 (3 - Moderate effect)	6 (6 - Herbicidal effect)	3 (3 - Moderate effect)	3 (3 - Moderate effect)				
Cc1cnc(-c2cc(C(F)(F)F)nn2C)nc1Oc1cc(C(F)(F)F)nn1C [Example 4, 2-(1-Methyl-3-trifluoromethylpyrazol-5-yl)-6-(1-methyl-3-trifluoromethylpyrazol-5-yloxy)-5-methylpyrimidine]	7 (7 - Good herbicidal effect)	9 (9 - Complete kill)	8 (8 - Approaching complete kill)	9 (9 - Complete kill)	2 (2 - Slight effect)	2 (2 - Slight effect)	3 (3 - Moderate effect)	9 (9 - Complete kill)	9 (9 - Complete kill)	5 (5 - Definite injury)	7 (7 - Good herbicidal effect)	9 (9 - Complete kill)	9 (9 - Complete kill)	3 (3 - Moderate effect)	5 (5 - Definite injury)	4 (4 - Injury)	8 (8 - Approaching complete kill)	good overall levels of weed control	well tolerated
Cn1nc(C(F)(F)F)cc1Oc1cc(C#N)cc(-c2cc(C(F)(F)F)nn2C)n1 [Example 3, 4-Cyano-2-(1-methyl-3-trifluoromethylpyrazol-5-yloxy)-6-(1-methyl-3-trifluoromethylpyrazol-5-yl)pyridine]	5 (5 - Definite injury)	8 (8 - Approaching complete kill)	9 (9 - Complete kill)	9 (9 - Complete kill)	3 (3 - Moderate effect)	3 (3 - Moderate effect)	5 (5 - Definite injury)	6 (6 - Herbicidal effect)	8 (8 - Approaching complete kill)	3 (3 - Moderate effect)	4 (4 - Injury)	5 (5 - Definite injury)	7 (7 - Good herbicidal effect)	3 (3 - Moderate effect)	5 (5 - Definite injury)	1 (1 - Trace effect)	9 (9 - Complete kill)	good overall levels of weed control	well tolerated
